In one data set the target is T1, DC-SIGN CRD (Homo sapiens, UniProt Q9NNX6).
T1 construct: human DC-SIGN (Lys62-Ala404, from R§D Systems); purchased R&D Systems ('R§D Systems' [sic])
T1 sequence (Q9NNX6 62-404): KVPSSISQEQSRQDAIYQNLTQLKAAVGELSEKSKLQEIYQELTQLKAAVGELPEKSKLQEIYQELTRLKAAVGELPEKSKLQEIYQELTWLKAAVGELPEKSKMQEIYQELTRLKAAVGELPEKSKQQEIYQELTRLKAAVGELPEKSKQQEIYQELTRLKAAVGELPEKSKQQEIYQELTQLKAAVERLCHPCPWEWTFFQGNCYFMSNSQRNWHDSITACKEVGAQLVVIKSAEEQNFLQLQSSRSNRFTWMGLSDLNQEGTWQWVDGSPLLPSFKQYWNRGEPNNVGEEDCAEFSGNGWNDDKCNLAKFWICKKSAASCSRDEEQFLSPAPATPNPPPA
Briefly: Surface plasmon resonance (SPR) binding to immobilised DC-SIGN CRD. Conditions: Kd=koff/kon. On the procedure:
SPR experiments were performed using a Biacore 3000. […] Biosensor assays were performed with HEPES-buffered saline (10 mM HEPES, 150 mM sodium chloride, pH 7.4) containing 0.005% surfactant P20 and 5 mM CaCl2 as a running buffer. All binding experiments were carried out at 25° C. with a constant flow rate of 20 μl/min. The different compounds dissolved in the running buffer (0.39 to 50 μM) were injected for 3 min, followed by a dissociation phase of 3 min. The sensor chip surface was regenerated after each experiment by injecting 10 μL of EDTA 0.5 M pH 8.0. A simple channel activated by EDC/NHS and deactivated with ethanolamine was used as control. The kinetic parameters were calculated using the BlAeval 4.1 software. Analysis was performed using the simple Langmuir binding model with separate ka/kd (kon/koff). The specific binding profiles were obtained after subtracting the response signal from the control channel and from blank-buffer injection. The fitting to each model was judged by the chi square value and randomness of residue distribution compared to the theoretical model (Langmuir binding 1:1).
The binding affinity of mannoside derivatives for the carbohydrate recognition domain (CRD) of DC-SIGN was assessed by surface plasmon resonance (SPR).
A CM5 sensor chip was functionalized with the DC-SIGN CRD, and increasing concentrations of the various compounds, mannan as a positive control and octaethyleneglycol (OEG) as a negative control, were injected over the chip surface. The association (kon) and dissociation (koff) rate constants and the resulting dissociation equilibrium constant (Kd=koff/kon) for each assessed compound were determined (see Table 1 hereunder).
A general note: In SPR one partner is held on a chip, and binding of the other changes the refractive index at the surface.

Data set [1] is described as follows: Hydrodynamic diameter of micelles (Zetasizer Nano ZS). The data set is classed as physicochemical. The note with it: in water at 0.5 mg/ml. On the procedure:
DiManinsatC24 was prepared according a procedure similar to that used for the preparation of TriDiManC24 except that: • pentacosanoic acid was replaced by 10,12-pentacosadiynoic acid, and • before the coupling with 10,12-pentacosadiynoic acid, the benzyl groups of compound 33 were replaced by acetyl group so as to provide compound 108 (as illustrated in FIG. 3E). ^1H NMR δ(ppm) (MeOD, 400 MHz) 4.87 (s, 3H), 4.73 (s, 3H), 3.64-3.50 (m, 14H), 3.46-3.20 (m, 76H), 2.97-2.93 (m, 6H), 2.33 (t, 6H, J=6.8 Hz), 2.09-1.96 (m, 6H), 1.08-1.05 (m, 32H), 0.66 (t, 3H, J=6.8 Hz). ^13C NMR δ (ppm) (MeOD, 100 MHz) 173.7, 168.8, 104.2, 101.2, 80.6, 80.4, 75.1, 74.7, 72.5, 72.2, 72.1, 71.9, 71.8, 71.7, 71.6, 71.4, 69.4, 69.1, 68.9, 68.7, 68.6, 68.0, 63.2, 63.1, 42.2, 37.0, 34.8, 33.7, 33.1, 30.8, 30.7, 30.6, 30.5, 30.4, 30.2, 29.5, 28.1, 27.0, 26.0, 23.7, 19.7, 14.4. IR (neat film, cm^−1): 3353, 2924, 1716, 1636, 1350, 1182, 1095, 1035, 1009, 837, 669. • Determination of critical micelle concentrations (CMCs) and size of particles. The hydrodynamic diameters of micelles of glycolipids were measured in water using a Zetasizer Nano ZS system (Malvern Instruments). The CMCs were measured using pyrene as an extrinsic fluorescent probe and were carried out as described (Perino et al., 2011). Briefly, a range of glycolipid samples were dissolved in water (1 ml), with concentrations ranging from 1.0 to 0.001 mg/ml. A stock solution of pyrene (1 mM) was prepared in dimethyl sulfoxyde and was added to each sample. Fluorescent emission of pyrene was measured at 25° C. using a Fluorolog spectrofluorometer (Jobin Yvon, Horiba). The intensities of fluorescence emission were determined at 374 nm (I374) and at 383 nm (I383), with an excitation at a 339 nm wavelength. The ratios I374/I383 were calculated and plotted against the glycolipid concentration. The CMC value was determined at the intersection of the two straight lines.

The subject of another data set is DCs. Kind of data set: Confocal microscopy of Alexa633-labeled TriManC24 in DCs. Type of data set: cell-based, human. Conditions: Alexa Fluor 633 labeled compound, 100 μM, 10 min at 37° C. On the procedure: Human DCs (1×10^5 in 100 μl of RPMI medium) were exposed to Alexa633-labeled TriManC24 (100 μM final) for 10 min at 37° C. When indicated, transferrin-Alexa488 (Invitrogen) was also added for 10 min at 37° C. Cells were then washed and fixed with 4% paraformaldehyde for 15 min at room temperature. Nuclei were labeled with DAPI (1 μg/ml final) for 5 min. Slides were mounted using Prolong-Antifade (Molecular Probes). Samples were imaged with a confocal microscope (Zeiss LSM 700) and images analyzed with Adobe Photoshop.
To gain further insight into the interactions of TriManC24 with DC-SIGN expressed by DCs, a fluorescence-labeled TriManC24 was prepared by connecting Alexa Fluor 633 to hydroxyl groups of the mannose units. DCs were exposed to the labeled TriManC24 and visualized by confocal fluorescence microscopy.

This is an account of results in patent US9522928B2, “Mannosylated compounds useful for the prevention and the treatment of infectious diseases” (UNIVERSITE DE STRASBOURG, priority 2011, dated 2016).

For orientation: Kd means the constant that tells how readily two partners part at equilibrium. A lower Kd goes with tighter binding.

“Also recorded” adds a separate entry of the source.

Turning to `CCCCCCCCCCCCCCCCCCCCCCCCC(=O)NC(COCCC(=O)NCCOCCOCCOCCOC1OC(CO)C(O)C(O)C1O)(COCCC(=O)NCCOCCOCCOCCOC1OC(CO)C(O)C(O)C1O)COCCC(=O)NCCOCCOCCOCCOC1OC(CO)C(O)C(O)C1O` (stereo not shown) [TriManC24], at DC-SIGN CRD, the “KD (μM)” value is “low micromolar range; also recorded: Sub-micromolar” and the equilibrium dissociation constant (Kd) amounted to 3.19 µM. Moreover, the “hydrodynamic diameter of micelles” value in data set [1] was determined as 39 nm. The “cell binding and internalization (in words)” value in the data set with DCs is “binds to the cell membrane and can be internalized by DCs via clathrin -mediated endocytosis”.
